From patent publication US6413245B1, “Sub-tenon drug delivery” (Alcon Universal Ltd., priority 1999, dated 2002)

Test: Retinal concentration of angiostatic steroid after sub-Tenon drug depot in rabbit eyes
Format: in vivo
Conditions: drug depot on outer surface of sclera, slightly posterior of the equator, measured the day after the injection, New Zealand White rabbits
From the text: Sclera 16 and Tenon's capsule 34 define the exterior surface of the globe of eye 10. For treatment of ARMD, CNV, retinopathies, retinitis, uveitis, cystoid macular edema (CME), glaucoma, and other diseases or conditions of posterior segment 26, it is preferable to dispose a depot 38 of a specific quantity of an ophthalmically acceptable pharmaceutically active agent directly on the outer surface of sclera 16 and below Tenon's capsule 34. In addition, in cases of ARMD and CME it is most preferable to dispose depot 38 directly on the outer surface of sclera 16, below Tenon's capsule 34, and generally above macula 30. In a study using New Zealand White rabbits, a drug depot of 4,9(11)-Pregnadien-17α,21-diol-3,20-dione-21-acetate, an angiostatic steroid available from Steraloids, Inc. of Wilton, New Hampshire, was disposed directly on the outer surface of the sclera, below the Tenon's capsule, and slightly posterior of the equator of the rabbit eyes. […] Given the fact that the Tenon's capsule of a New Zealand White rabbit is very thin, these beneficial results are highly unexpected. It is important to note that Tenon's capsule 34 of human eye 10 is also very thin. […]

concentration of the angiostatic steroid, averaged over the entire retina, relative to a depot located below the conjunctiva but above the Tenon's capsule: about ten times greater
SMILES: CC(=O)OCC(=O)[C@@]1(O)CC[C@H]2[C@@H]3CCC4=CC(=O)CC[C@]4(C)C3=CC[C@@]21C [4,9(11)-Pregnadien-17α,21-diol-3,20-dione-21-acetate]
